Laboratory results reported in the supplement of paper PMC10307832.

How the values were obtained:
Assay in all cases: relative viability (nuclei count vs DMSO), 5 days (fraction); higher = more cells survive
201T = system: 201T
Summary of the method: (§1)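 The day after seeding in 1536-well plates, lung cancer cell lines were treated by pin tool with a single drug, or with a fixed anchor-drug dose together with five library-drug doses (not always all listed) in √10 steps. After 5 days, a combined fix-and-stain solution (final 0.05% Triton X-100, 1% formaldehyde, 1 ug/ml Hoechst) was added. Nuclei counted on 4× images gave relative viability as treated counts over vehicle counts, reported as the median of duplicate plates.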

BEN = system: BEN
Summary of the method: as §1

EMC-BAC-2 = system: EMC-BAC-2
Summary of the method: as §1

HARA = system: HARA
Summary of the method: as §1

HCC-44 = system: HCC-44
Summary of the method: as §1

LCLC-103H = system: LCLC-103H
Summary of the method: as §1

LOU-NH91 = system: LOU-NH91
Summary of the method: as §1

NCI-H1395 = system: NCI-H1395
Summary of the method: as §1

NCI-H1666 = system: NCI-H1666
Summary of the method: as §1

NCI-H1993 = system: NCI-H1993
Summary of the method: as §1

NCI-H2009 = system: NCI-H2009
Summary of the method: as §1

NCI-H2023 = system: NCI-H2023
Summary of the method: as §1

NCI-H2087 = system: NCI-H2087
Summary of the method: as §1

NCI-H2126 = system: NCI-H2126
Summary of the method: as §1

NCI-H2347 = system: NCI-H2347
Summary of the method: as §1

NCI-H23 = system: NCI-H23
Summary of the method: as §1

NCI-H3122 = system: NCI-H3122
Summary of the method: as §1

NCI-H441 = system: NCI-H441
Summary of the method: as §1

NCI-H522 = system: NCI-H522
Summary of the method: as §1

NCI-H596 = system: NCI-H596
Summary of the method: as §1

NCI-H647 = system: NCI-H647
Summary of the method: as §1

NCI-H650 = system: NCI-H650
Summary of the method: as §1

NCI-H727 = system: NCI-H727
Summary of the method: as §1

NCI-H838 = system: NCI-H838
Summary of the method: as §1

For `CC(C)Oc1cc(Nc2nc(N[C@@H](C)c3ccc(F)cn3)ncc2Cl)n[nH]1` [AZ23] + CCNC(=O)c1noc(-c2cc(C(C)C)c(O)cc2O)c1-c1ccc(CN2CCOCC2)cc1 [Luminespib] (partner 0.01 µM), the relative viability (201T; first compound 0.01 µM) was 1.15, the relative viability (201T; first compound 0.03162 µM) was 1.02 and the relative viability (201T; first compound 0.3162 µM) was 1.02. For the same compound, the relative viability (BEN; first compound 0.01 µM) was 0.287, the relative viability (BEN; first compound 0.03162 µM) was 0.378 and the relative viability (BEN; first compound 0.3162 µM) was 0.243. It also gave a relative viability (EMC-BAC-2; first compound 0.01 µM) of 1.11, a relative viability (EMC-BAC-2; first compound 0.03162 µM) of 1.3 and a relative viability (EMC-BAC-2; first compound 0.3162 µM) of 1.23. For the same compound, the relative viability (HARA; first compound 0.03162 µM) was 0.822, the relative viability (HARA; first compound 0.3162 µM) was 1.34 and the relative viability (HCC-44; first compound 0.01 µM) was 0.863. For the same compound, the relative viability (HCC-44; first compound 0.03162 µM) was 1.22, the relative viability (HCC-44; first compound 0.3162 µM) was 1.22 and the relative viability (LCLC-103H; first compound 0.01 µM) was 1.04. The relative viability (LCLC-103H; first compound 0.03162 µM) was 0.923, the relative viability (LCLC-103H; first compound 0.3162 µM) was 1.03 and the relative viability (LOU-NH91; first compound 0.01 µM) was 0.387. It also gave a relative viability (LOU-NH91; first compound 0.03162 µM) of 0.349, a relative viability (LOU-NH91; first compound 0.3162 µM) of 0.324 and a relative viability (NCI-H1395; first compound 0.03162 µM) of 0.658. The relative viability (NCI-H1395; first compound 0.3162 µM) was 0.771, the relative viability (NCI-H1666; first compound 0.01 µM) was 1.05 and the relative viability (NCI-H1666; first compound 0.03162 µM) was 1.34. It also gave a relative viability (NCI-H1666; first compound 0.3162 µM) of 0.943, a relative viability (NCI-H1993; first compound 0.01 µM) of 0.785 and a relative viability (NCI-H1993; first compound 0.03162 µM) of 0.881. The relative viability (NCI-H1993; first compound 0.3162 µM) was 0.854, the relative viability (NCI-H2009; first compound 0.01 µM) was 1.05 and the relative viability (NCI-H2009; first compound 0.03162 µM) was 1.17. For the same compound, the relative viability (NCI-H2009; first compound 0.3162 µM) was 1.1, the relative viability (NCI-H2023; first compound 0.03162 µM) was 0.829 and the relative viability (NCI-H2023; first compound 0.3162 µM) was 0.674. It also gave a relative viability (NCI-H2087; first compound 0.01 µM) of 0.151, a relative viability (NCI-H2087; first compound 0.03162 µM) of 0.171 and a relative viability (NCI-H2087; first compound 0.3162 µM) of 0.169. For the same compound, the relative viability (NCI-H2126; first compound 0.01 µM) was 0.954, the relative viability (NCI-H2126; first compound 0.03162 µM) was 1 and the relative viability (NCI-H2126; first compound 0.3162 µM) was 0.875. For the same compound, the relative viability (NCI-H2347; first compound 0.01 µM) was 0.486, the relative viability (NCI-H2347; first compound 0.03162 µM) was 0.62 and the relative viability (NCI-H2347; first compound 0.3162 µM) was 0.41. It also gave a relative viability (NCI-H23; first compound 0.03162 µM) of 0.229, a relative viability (NCI-H23; first compound 0.3162 µM) of 0.204 and a relative viability (NCI-H3122; first compound 0.01 µM) of 0.111. It also gave a relative viability (NCI-H3122; first compound 0.03162 µM) of 0.0892, a relative viability (NCI-H3122; first compound 0.3162 µM) of 0.0986 and a relative viability (NCI-H441; first compound 0.01 µM) of 0.28. It also gave a relative viability (NCI-H441; first compound 0.03162 µM) of 0.344, a relative viability (NCI-H441; first compound 0.3162 µM) of 0.376 and a relative viability (NCI-H522; first compound 0.01 µM) of 1.06. For the same compound, the relative viability (NCI-H522; first compound 0.03162 µM) was 1.08, the relative viability (NCI-H522; first compound 0.3162 µM) was 1.15 and the relative viability (NCI-H596; first compound 0.01 µM) was 1.13. For the same compound, the relative viability (NCI-H596; first compound 0.03162 µM) was 1.06, the relative viability (NCI-H596; first compound 0.3162 µM) was 0.857 and the relative viability (NCI-H647; first compound 0.01 µM) was 0.125. It also gave a relative viability (NCI-H647; first compound 0.03162 µM) of 0.107, a relative viability (NCI-H647; first compound 0.3162 µM) of 0.149 and a relative viability (NCI-H650; first compound 0.01 µM) of 0.665. The relative viability (NCI-H650; first compound 0.03162 µM) was 0.854, the relative viability (NCI-H650; first compound 0.3162 µM) was 0.765 and the relative viability (NCI-H727; first compound 0.01 µM) was 0.354. For the same compound, the relative viability (NCI-H727; first compound 0.03162 µM) was 0.311, the relative viability (NCI-H727; first compound 0.3162 µM) was 0.454 and the relative viability (NCI-H838; first compound 0.01 µM) was 0.229. For the same compound, the relative viability (NCI-H838; first compound 0.03162 µM) was 0.278 and the relative viability (NCI-H838; first compound 0.3162 µM) was 0.345.
